Experiments:
Assay type in all cases: biochemical
PI3kα = PI3kα (Homo sapiens, UniProt P42336); assay: Fluorescent (HTRF) determination of PI3 kinase enzyme activity, PI3Kα; conditions: 1 uM
From the text: (§1) Assay 1: Fluorescent Determination of PI3Kinase Kinase Enzyme Activity
(§2) Phosphoinositide 3 kinases (PI3K) belong to a class of lipid kinases that play a critical role in the regulation of several key cellular processes. The PI3K are capable of phosphorylating the 3-hydroxy position of phosphoinositols thereby generating second messengers involved in downstream signalling events. The homogenous time resolved fluorescence (HTRF) assay allows detection of 3,4,5-triphosphate (PIP3) formed as a result of phosphorylation of phosphotidylinositol 4,5-biphosphate (PIP2) by PI3K isoforms such as α, β, γ or δ. PI3K isoform activity for a, p, y or 8 was determined using a PI3K human HTRF™ Assay Kit (Millipore, Billerica, Mass.) with modifications. All incubations were carried out at room temperature. Briefly, 0.5 μl of 40× inhibitor (in 100% DMSO) or 100% DMSO were added to each well of a 384-well black plate (Greiner Bio-One, Monroe, N.C.) containing 14.5 μl IX reaction buffer /PIP2 (10 mM MgCl2, 5 mM DTT, 1.38 μM PIP2) mix with or without enzyme and incubated for 10 min. After the initial incubation, 5 μl/well of 400 μM ATP was added and incubated for an additional 30 minutes. Reaction was terminated by adding 5 μl/well stop solution (Millipore, Billerica, Mass.). Five microliters of detection mix (Millipore, Billerica, Mass.) were then added to each well and was incubated for 6-18 h in the dark. HRTF ratio was measured on a microplate reader (BMG Labtech., Germany) at an excitation wavelength of 337 nm and emission wavelengths of 665 and 620 nm with an integration time of 400 μsec.
(§3) Data were analyzed using Graphpad Prism (Graphpad software; San Diego Calif.) for IC50 determination. Examples 1-59 were tested at 1 uM for Pi3kα & Pi3k β and at 0.3 uM for γ and δ. Examples 60-137 were tested at 1 uM for Pi3kα & Pi3k β and at 0.1 uM for γ and δ. Percent inhibition was calculated based on the values for the blank and enzyme controls. The results are as provided in Table 2 (wherein D=0 to 25%; C=>25 to 50%; B=>50 to 75%; A=>75 to 100%; +++++=≤50 nM; ++++=>50 to ≤100 nM; +++=>100 to ≤300 nM; ++=>300 to ≤500 nM; +=>500 nM)

PI3kβ = PI3kβ (Homo sapiens, UniProt P42338); assay: Fluorescent (HTRF) determination of PI3 kinase enzyme activity, PI3Kβ; conditions: 1 uM
From the text: as §1, §2, §3

PI3kγ = PI3kγ (Homo sapiens, UniProt P48736); assay: Fluorescent (HTRF) determination of PI3 kinase enzyme activity, PI3Kγ; conditions: for inhibition at 0.3 µM: 300 nM (Examples 1-59)
From the text: as §1, §2, §3

PI3kδ = PI3kδ (Homo sapiens, UniProt O00329); assay: Fluorescent (HTRF) determination of PI3 kinase enzyme activity, PI3Kδ; conditions: for inhibition at 0.3 µM: 300 nM (Examples 1-59)
From the text: as §1, §2, §3

PI3kδ, sequence (O00329 whole entry): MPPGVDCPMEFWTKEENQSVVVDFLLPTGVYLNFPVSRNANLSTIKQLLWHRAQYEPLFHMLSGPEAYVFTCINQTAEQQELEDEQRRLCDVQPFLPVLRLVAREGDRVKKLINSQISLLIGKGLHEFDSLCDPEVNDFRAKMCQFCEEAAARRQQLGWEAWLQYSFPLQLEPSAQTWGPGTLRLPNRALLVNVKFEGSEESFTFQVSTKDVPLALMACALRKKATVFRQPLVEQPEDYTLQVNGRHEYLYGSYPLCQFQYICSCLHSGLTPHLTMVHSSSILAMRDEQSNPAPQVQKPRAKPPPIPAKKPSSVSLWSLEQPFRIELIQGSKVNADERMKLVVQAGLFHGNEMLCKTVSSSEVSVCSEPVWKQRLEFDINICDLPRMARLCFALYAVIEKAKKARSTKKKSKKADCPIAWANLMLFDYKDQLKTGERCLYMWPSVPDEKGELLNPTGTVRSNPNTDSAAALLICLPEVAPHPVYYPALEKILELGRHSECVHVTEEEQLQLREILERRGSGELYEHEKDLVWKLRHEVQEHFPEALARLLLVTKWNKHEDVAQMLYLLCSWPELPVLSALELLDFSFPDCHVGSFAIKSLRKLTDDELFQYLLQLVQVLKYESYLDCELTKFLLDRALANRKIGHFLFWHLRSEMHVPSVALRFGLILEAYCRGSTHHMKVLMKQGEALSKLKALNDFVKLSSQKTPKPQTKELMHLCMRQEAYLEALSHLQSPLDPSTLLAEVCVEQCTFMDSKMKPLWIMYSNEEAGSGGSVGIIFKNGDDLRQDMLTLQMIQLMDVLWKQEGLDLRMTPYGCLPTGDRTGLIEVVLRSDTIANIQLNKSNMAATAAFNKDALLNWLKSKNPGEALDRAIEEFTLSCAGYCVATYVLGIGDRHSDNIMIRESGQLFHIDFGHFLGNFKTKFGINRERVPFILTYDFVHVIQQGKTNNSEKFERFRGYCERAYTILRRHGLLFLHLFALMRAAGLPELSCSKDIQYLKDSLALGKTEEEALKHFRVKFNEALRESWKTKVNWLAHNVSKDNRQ
PI3kδ, sequence (P27986 whole entry partner): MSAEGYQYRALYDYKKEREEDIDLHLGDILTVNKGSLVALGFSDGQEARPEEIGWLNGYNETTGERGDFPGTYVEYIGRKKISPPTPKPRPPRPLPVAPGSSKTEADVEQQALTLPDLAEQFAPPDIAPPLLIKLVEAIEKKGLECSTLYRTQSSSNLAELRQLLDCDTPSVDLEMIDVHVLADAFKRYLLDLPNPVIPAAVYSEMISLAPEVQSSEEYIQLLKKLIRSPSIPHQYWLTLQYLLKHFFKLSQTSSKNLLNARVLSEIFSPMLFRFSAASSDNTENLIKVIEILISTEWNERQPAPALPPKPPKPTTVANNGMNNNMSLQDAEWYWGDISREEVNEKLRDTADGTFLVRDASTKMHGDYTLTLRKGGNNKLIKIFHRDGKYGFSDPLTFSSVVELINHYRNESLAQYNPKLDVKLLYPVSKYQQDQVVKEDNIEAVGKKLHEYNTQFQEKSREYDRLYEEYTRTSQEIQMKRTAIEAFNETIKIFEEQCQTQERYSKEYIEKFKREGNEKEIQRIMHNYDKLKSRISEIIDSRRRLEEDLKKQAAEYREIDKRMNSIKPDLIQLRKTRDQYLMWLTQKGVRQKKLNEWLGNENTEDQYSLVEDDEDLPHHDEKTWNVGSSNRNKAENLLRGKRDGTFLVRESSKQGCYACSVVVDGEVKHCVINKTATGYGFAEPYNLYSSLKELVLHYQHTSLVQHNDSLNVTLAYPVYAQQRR
PI3kα, sequence (P42336 whole entry): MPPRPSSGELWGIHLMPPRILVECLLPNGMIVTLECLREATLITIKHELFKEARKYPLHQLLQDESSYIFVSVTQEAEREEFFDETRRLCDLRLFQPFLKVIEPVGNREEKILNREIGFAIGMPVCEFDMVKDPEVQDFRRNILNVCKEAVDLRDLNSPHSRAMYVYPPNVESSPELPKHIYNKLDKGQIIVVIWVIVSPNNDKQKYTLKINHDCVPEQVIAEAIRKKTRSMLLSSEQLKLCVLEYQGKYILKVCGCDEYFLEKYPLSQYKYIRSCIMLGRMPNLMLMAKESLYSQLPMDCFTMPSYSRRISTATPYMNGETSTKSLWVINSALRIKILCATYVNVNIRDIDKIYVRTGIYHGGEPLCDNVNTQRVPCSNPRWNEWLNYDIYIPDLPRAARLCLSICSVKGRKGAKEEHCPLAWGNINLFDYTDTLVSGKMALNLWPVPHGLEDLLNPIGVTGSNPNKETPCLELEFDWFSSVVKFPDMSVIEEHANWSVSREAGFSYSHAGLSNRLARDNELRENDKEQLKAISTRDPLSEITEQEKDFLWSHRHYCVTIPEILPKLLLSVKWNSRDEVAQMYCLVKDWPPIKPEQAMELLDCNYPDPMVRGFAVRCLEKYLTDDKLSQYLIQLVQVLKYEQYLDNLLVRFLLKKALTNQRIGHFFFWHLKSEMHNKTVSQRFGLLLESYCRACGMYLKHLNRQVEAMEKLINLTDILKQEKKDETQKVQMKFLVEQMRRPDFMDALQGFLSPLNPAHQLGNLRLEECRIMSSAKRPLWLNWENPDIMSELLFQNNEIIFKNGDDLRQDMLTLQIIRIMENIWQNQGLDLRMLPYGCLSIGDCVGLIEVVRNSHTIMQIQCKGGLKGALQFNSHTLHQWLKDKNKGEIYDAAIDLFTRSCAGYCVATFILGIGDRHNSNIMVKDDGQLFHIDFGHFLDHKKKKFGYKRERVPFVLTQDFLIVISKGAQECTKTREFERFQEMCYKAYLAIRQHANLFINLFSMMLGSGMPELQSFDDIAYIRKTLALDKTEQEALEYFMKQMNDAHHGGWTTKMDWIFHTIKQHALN
PI3kα, sequence (P27986 whole entry partner): as the sequence (P27986 whole entry partner) above
PI3kβ, sequence (P42338 whole entry): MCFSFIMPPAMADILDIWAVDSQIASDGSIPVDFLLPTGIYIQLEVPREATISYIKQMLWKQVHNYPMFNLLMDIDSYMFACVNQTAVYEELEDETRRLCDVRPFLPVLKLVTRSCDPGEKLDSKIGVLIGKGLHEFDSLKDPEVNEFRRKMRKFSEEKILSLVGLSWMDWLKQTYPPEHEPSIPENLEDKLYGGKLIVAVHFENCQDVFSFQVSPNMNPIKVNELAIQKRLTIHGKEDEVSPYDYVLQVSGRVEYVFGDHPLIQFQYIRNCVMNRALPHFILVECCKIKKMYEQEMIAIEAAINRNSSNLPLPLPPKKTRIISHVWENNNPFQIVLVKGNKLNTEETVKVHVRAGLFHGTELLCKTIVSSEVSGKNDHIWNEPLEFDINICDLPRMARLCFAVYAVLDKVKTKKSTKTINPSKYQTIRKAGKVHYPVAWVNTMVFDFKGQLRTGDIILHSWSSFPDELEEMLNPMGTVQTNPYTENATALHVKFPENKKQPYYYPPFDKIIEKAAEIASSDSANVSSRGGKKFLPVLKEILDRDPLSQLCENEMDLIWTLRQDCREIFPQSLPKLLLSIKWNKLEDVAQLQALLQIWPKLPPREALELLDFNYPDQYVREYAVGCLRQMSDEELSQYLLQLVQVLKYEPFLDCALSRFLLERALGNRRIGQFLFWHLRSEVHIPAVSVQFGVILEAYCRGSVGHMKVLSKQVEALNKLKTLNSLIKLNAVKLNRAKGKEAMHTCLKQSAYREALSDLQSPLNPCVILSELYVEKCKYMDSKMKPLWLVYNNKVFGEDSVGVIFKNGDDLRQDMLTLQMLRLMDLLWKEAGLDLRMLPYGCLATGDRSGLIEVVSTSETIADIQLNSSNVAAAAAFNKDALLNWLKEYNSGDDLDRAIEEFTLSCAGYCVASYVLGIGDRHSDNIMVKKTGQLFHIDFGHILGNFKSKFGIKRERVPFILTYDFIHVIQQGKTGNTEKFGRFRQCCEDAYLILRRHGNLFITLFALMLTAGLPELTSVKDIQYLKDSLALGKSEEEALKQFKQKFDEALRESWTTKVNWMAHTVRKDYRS
PI3kβ, sequence (P27986 whole entry partner): as the sequence (P27986 whole entry partner) above
PI3kγ, sequence (P48736 whole entry): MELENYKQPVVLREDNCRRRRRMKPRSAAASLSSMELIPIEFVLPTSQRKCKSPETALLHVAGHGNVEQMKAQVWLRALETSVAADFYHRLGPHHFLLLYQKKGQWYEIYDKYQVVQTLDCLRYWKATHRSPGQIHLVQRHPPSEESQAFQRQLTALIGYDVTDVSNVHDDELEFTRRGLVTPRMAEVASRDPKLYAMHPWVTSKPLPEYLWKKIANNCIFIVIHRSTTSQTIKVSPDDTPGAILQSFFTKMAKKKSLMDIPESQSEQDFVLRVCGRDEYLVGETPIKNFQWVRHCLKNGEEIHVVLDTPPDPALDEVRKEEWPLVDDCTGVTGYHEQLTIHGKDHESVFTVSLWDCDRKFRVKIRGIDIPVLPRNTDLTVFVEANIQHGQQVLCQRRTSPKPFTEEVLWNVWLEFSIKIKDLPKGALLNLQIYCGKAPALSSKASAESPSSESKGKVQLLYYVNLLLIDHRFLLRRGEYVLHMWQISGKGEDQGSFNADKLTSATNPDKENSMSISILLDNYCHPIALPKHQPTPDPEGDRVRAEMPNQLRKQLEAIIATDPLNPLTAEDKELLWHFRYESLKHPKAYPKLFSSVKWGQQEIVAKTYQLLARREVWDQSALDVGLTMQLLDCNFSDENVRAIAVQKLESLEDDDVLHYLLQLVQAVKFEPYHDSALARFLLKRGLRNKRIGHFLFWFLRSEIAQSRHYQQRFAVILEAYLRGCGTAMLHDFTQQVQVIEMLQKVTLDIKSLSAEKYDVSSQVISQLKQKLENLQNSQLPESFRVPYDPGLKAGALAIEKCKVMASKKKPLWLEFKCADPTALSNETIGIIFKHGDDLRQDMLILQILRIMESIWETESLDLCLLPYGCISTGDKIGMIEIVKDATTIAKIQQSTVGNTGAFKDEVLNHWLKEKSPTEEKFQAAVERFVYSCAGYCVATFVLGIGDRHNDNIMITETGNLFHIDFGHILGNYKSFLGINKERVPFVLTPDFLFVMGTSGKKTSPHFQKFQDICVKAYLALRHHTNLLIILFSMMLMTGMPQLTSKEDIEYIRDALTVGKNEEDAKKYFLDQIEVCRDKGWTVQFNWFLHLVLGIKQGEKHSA

| Structure (SMILES) | inhibition at 1 µM (PI3kα) | inhibition at 1 µM (PI3kβ) | inhibition at 0.3 µM (PI3kγ) | inhibition at 0.3 µM (PI3kδ) | % inhibition (PI3kα) 1 uM (PI3kα) | % inhibition (PI3kβ) 1 uM (PI3kβ) | IC50 (PI3kγ) | IC50 (PI3kδ) |
| --- | --- | --- | --- | --- | --- | --- | --- | --- |
| CC(c1oc2cccc(F)c2c(=O)c1-c1cccc(F)c1)n1cnc2c(N)ncnc21 (stereo not shown) [Example 11, 2-(1-(6-amino-9H-purin-9-yl)ethyl)-5-fluoro-3-(3-fluorophenyl)-4H-chromen-4-one] | 50 to 75% | 50 to 75% | 25 to 50% | 50 to 75% | – | – | – | – |
| CC(C)Oc1ccc(-c2nn(C(C)c3oc4cccc(F)c4c(=O)c3-c3ccc(F)cc3)c3ncnc(N)c23)cc1F (stereo not shown) [Example 12, 2-(1-(4-amino-3-(3-fluoro-4-isopropoxyphenyl)-1H-pyrazolo[3,4-d]pyrimidin-1-yl)ethyl)-5-fluoro-3-(4-fluorophenyl)-4H-chromen-4-one] | – | – | 75 to 100% | 25 to 50% | D (D=0 to 25%) | C (C=>25 to 50%) | 100 to 300 nM | – |
| CC(C)Oc1ccc(-c2nn(C(C)c3oc4cccc(F)c4c(=O)c3-c3ccccc3)c3ncnc(N)c23)cc1F (stereo not shown) [Example 13, 2-(1-(4-amino-3-(3-fluoro-4-isopropoxyphenyl)-1H-pyrazolo[3,4-d]pyrimidin-1-yl)ethyl)-5-fluoro-3-phenyl-4H-chromen-4-one] | – | – | 50 to 75% | 75 to 100% | D (D=0 to 25%) | D (D=0 to 25%) | – | ≤ 50 nM |
| CC(c1oc2cccc(F)c2c(=O)c1-c1cccc(F)c1)n1nc(-c2cc3ccccc3o2)c2c(N)ncnc21 (stereo not shown) [Example 14, 2-(1-(4-amino-3-(benzofuran-2-yl)-1H-pyrazolo[3,4-d]pyrimidin-1-yl)ethyl)-5-fluoro-3-(3-fluorophenyl)-4H-chromen-4-one] | 25 to 50% | 0 to 25% | 75 to 100% | 75 to 100% | – | – | 50 to 100 nM | 50 to 100 nM |
| CC(c1oc2cccc(F)c2c(=O)c1-c1cccc(F)c1)n1ncc2c(N)ncnc21 (stereo not shown) [Example 16, 2-(1-(4-amino-1H-pyrazolo[3,4-d]pyrimidin-1-yl)ethyl)-5-fluoro-3-(3-fluorophenyl)-4H-chromen-4-one] | 25 to 50% | 0 to 25% | 0 to 25% | 75 to 100% | – | – | – | 50 to 100 nM |
| CC(c1oc2cccc(F)c2c(=O)c1-c1cccc(F)c1)n1nc(-c2ccc(OC(F)F)c(F)c2)c2c(N)ncnc21 (stereo not shown) [Example 17, 2-(1-(4-amino-3-(4-(difluoromethoxy)-3-fluorophenyl)-1H-pyrazolo[3,4-d]pyrimidin-1-yl)ethyl)-5-fluoro-3-(3-fluorophenyl)-4H-chromen-4-one] | 0 to 25% | 25 to 50% | 25 to 50% | 75 to 100% | – | – | – | – |
| CC(C)Oc1ccc(-c2nn(C(C)c3oc4cccc(F)c4c(=O)c3-c3cn[nH]c3)c3ncnc(N)c23)cc1F (stereo not shown) [Example 18, 2-(1-(4-amino-3-(3-fluoro-4-isopropoxyphenyl)-1H-pyrazolo[3,4-d]pyrimidin-1-yl)ethyl)-5-fluoro-3-(1H-pyrazol-4-yl)-4H-chromen-4-one] | 0 to 25% | 0 to 25% | 50 to 75% | 75 to 100% | – | – | – | 50 to 100 nM |
| CC(c1oc2cccc(F)c2c(=O)c1-c1cccc(F)c1)n1nc(-c2ccc(OC3CCOCC3)c(F)c2)c2c(N)ncnc21 (stereo not shown) [Example 19, 2-(1-(4-amino-3-(3-fluoro-4-(tetrahydro-2H-pyran-4-yloxy)phenyl)-1H-pyrazolo[3,4-d]pyrimidin-1-yl)ethyl)-5-fluoro-3-(3-fluorophenyl)-4H-chromen-4-one] | 25 to 50% | 25 to 50% | 75 to 100% | 50 to 75% | – | – | – | – |
| CC(C)c1n[nH]c2cc(-c3nn(C(C)c4oc5cccc(F)c5c(=O)c4-c4cccc(F)c4)c4ncnc(N)c34)ccc12 (stereo not shown) [Example 20, 2-(1-(4-amino-3-(3-isopropyl-1H-indazol-6-yl)-1H-pyrazolo[3,4-d]pyrimidin-1-yl)ethyl)-5-fluoro-3-(3-fluorophenyl)-4H-chromen-4-one] | 0 to 25% | 25 to 50% | 0 to 25% | 75 to 100% | – | – | – | 50 to 100 nM |

Reference: US11020399B2, “Intermediates useful in the synthesis of compounds as modulators of protein kinases” (Rhizen Pharmaceuticals SA, priority 2011, dated 2021)
